Measured values as given in US7880007B2, “Bicyclic substituted phenyl piperidine modulators of muscarinic receptors” (Vertex Pharmaceuticals Incorporated, priority 2004, dated 2011).

Columns and labels:
Assay type in all cases: cell-based
[1] = molecular target: T1, M1 muscarinic receptor (Homo sapiens, UniProt P11229); experiment: Functional mobilization of intracellular calcium (FLIPR), M1-CHO cells; conditions: for M1 Activity: M1-CHO cells, calcium mobilization (FLIPR)
T1 construct: expressed in transfected cells; host or cells: CHO (M1-CHO)
T1 sequence (P11229 1-460): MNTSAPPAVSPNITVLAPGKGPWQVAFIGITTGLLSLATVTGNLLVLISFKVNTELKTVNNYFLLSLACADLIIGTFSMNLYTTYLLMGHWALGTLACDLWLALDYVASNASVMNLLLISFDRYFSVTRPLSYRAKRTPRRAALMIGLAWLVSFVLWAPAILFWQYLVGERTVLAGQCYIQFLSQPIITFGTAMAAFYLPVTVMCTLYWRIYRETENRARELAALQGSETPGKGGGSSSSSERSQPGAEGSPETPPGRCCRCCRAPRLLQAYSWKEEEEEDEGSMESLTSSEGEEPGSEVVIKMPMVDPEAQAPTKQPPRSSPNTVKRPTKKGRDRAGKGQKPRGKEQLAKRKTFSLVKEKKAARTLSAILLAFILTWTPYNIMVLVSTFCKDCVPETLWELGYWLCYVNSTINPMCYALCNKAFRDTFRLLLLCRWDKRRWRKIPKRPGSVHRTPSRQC
Method in brief: (§1)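 FLIPR fluorescence (ex 488, em 540 nm) recorded 60 sec after compound addition to dye-loaded CHO cells. Agonist mode: compound alone. Antagonist mode: 15 min compound pre-incubation, then carbachol at EC80, or co-application. Efficacy expressed as % of maximal carbachol response.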

[2] = molecular target: T2, M2 muscarinic receptor (Homo sapiens, UniProt P08172); experiment: Functional mobilization of intracellular calcium (FLIPR), M2-CHO cells; conditions: for M2 Activity: M2-CHO cells, calcium mobilization (FLIPR)
T2 construct: expressed in transfected cells; host or cells: CHO (M2-CHO)
T2 sequence (P08172 1-466): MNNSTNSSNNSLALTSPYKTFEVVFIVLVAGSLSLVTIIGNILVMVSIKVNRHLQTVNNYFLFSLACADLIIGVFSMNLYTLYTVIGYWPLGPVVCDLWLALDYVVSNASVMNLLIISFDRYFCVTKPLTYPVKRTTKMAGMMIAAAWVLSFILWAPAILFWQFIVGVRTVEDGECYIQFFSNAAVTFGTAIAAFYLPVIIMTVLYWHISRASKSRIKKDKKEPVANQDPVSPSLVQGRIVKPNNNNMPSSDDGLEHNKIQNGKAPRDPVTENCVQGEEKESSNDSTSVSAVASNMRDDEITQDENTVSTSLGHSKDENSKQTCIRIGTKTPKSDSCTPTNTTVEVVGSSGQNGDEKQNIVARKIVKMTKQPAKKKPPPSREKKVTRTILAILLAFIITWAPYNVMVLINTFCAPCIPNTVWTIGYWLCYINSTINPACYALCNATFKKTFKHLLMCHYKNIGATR
Method in brief: as §1

[3] = molecular target: T3, M3 muscarinic receptor (Homo sapiens, UniProt P20309); experiment: Functional mobilization of intracellular calcium (FLIPR), M3-CHO cells; conditions: for M3 Activity: M3-CHO cells, calcium mobilization (FLIPR)
T3 construct: expressed in transfected cells; host or cells: CHO (M3-CHO)
Method in brief: as §1

[4] = molecular target: T4, M4 muscarinic receptor (Homo sapiens, UniProt P08173); experiment: Functional mobilization of intracellular calcium (FLIPR), M4-CHO cells; conditions: for M4 Activity: M4-CHO cells, calcium mobilization (FLIPR)
T4 construct: expressed in transfected cells; host or cells: CHO (M4-CHO)
T4 sequence (P08173 1-479): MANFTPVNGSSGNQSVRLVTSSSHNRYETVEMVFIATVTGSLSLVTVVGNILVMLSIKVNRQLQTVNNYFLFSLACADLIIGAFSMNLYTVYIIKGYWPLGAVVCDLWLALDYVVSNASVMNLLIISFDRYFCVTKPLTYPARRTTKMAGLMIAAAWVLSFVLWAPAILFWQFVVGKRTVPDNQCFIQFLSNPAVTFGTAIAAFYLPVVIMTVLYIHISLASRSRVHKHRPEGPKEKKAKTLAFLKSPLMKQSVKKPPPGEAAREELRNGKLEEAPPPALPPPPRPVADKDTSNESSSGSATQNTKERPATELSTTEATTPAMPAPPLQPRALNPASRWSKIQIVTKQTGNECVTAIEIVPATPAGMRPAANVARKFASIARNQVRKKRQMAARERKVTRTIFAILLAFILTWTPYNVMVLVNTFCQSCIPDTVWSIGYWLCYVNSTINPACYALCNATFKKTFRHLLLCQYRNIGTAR
Method in brief: as §1

[5] = 100% efficacy = maximum response obtained with the Carbachol control

T3 sequence (P20309 whole entry): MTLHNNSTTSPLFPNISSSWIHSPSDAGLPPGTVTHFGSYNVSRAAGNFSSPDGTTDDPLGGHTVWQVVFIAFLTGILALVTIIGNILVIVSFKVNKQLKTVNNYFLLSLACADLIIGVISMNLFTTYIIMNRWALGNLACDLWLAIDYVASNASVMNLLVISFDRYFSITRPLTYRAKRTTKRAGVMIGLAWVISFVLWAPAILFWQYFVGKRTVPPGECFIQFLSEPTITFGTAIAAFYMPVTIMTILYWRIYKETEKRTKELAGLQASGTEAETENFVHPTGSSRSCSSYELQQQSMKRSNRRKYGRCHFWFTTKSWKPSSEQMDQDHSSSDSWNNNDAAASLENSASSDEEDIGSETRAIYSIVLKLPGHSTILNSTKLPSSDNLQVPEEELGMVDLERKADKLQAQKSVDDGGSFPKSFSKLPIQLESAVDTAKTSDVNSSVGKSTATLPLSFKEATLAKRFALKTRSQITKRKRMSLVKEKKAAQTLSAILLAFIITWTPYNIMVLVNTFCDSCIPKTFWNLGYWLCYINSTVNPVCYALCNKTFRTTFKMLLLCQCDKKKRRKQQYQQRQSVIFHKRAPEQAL

| SMILES | Emax [1, 5] | Emax [2, 5] | Emax [3, 5] | Emax [4, 5] | M1 Activity [1] | M2 Activity [2] | M3 Activity [3] | M4 Activity [4] | M1 Efficacy [1, 5] | M2 Efficacy [2, 5] | M3 Efficacy [3, 5] | M4 Efficacy [4, 5] |
| --- | --- | --- | --- | --- | --- | --- | --- | --- | --- | --- | --- | --- |
| COc1cc(F)c(F)cc1C1CCN([C@@H]2C[C@H]3CC[C@H]2C3)CC1 [Compound 76] | < 25% | < 25% | < 25% | 25 to 100% | + (activity was measured to be greater than 5.0 μM) | + (activity was measured to be greater than 5.0 μM) | + (activity was measured to be greater than 5.0 μM) | ++ (activity was measured to be from 1.0 μM to 5.0 μM) |  |  |  |  |
| COc1ccc(-c2ccc3c(c2)OCO3)cc1C1CCN(C2CC3CCC(C3)C2)CC1 (stereo not shown) [Compound 77] | < 25% | < 25% | < 25% | 25 to 100% | + (activity was measured to be greater than 5.0 μM) | + (activity was measured to be greater than 5.0 μM) | + (activity was measured to be greater than 5.0 μM) | + (activity was measured to be greater than 5.0 μM) |  |  |  |  |
| COc1ccc(F)cc1C1CCN([C@H]2C[C@H]3CC[C@H]2C3)CC1 [Compound 78] | 25 to 100% | < 25% | < 25% | 25 to 100% | ++ (activity was measured to be from 1.0 μM to 5.0 μM) | + (activity was measured to be greater than 5.0 μM) | + (activity was measured to be greater than 5.0 μM) | +++ (activity was measured to be less than 1.0 μM) |  |  |  |  |
| COc1ccccc1C1CCN(C2CC3CCC2C3)CC1 (stereo not shown) [Compound 79] | 25 to 100% | < 25% | < 25% | 25 to 100% | + (activity was measured to be greater than 5.0 μM) | + (activity was measured to be greater than 5.0 μM) | + (activity was measured to be greater than 5.0 μM) | +++ (activity was measured to be less than 1.0 μM) |  |  |  |  |
| COc1ccc(-c2ccc(C#N)cc2)cc1C1CCN(C2CC3CCC(C3)C2)CC1 (stereo not shown) [Compound 82] | 25 to 100% | < 25% | < 25% | 25 to 100% | + (activity was measured to be greater than 5.0 μM) | + (activity was measured to be greater than 5.0 μM) | + (activity was measured to be greater than 5.0 μM) | + (activity was measured to be greater than 5.0 μM) |  |  |  |  |
| Cc1ccccc1C1CCN([C@H]2C[C@H]3CC[C@H]2C3)CC1 [Compound 93] |  |  |  |  | ++ (activity was measured to be from 1.0 μM to 5.0 μM) | + (activity was measured to be greater than 5.0 μM) | + (activity was measured to be greater than 5.0 μM) | +++ (activity was measured to be less than 1.0 μM) | ++ (efficacy was calculated to be from 100% to 25%) | + (efficacy was calculated to be less than 25%) | + (efficacy was calculated to be less than 25%) | ++ (efficacy was calculated to be from 100% to 25%) |

Now from value to compound, other results behind:

| Emax [1, 5] | Emax [2, 5] | Emax [3, 5] | Emax [4, 5] | SMILES | M1 Activity [1] | M2 Activity [2] | M3 Activity [3] | M4 Activity [4] | M1 Efficacy [1, 5] | M2 Efficacy [2, 5] | M3 Efficacy [3, 5] | M4 Efficacy [4, 5] |
| --- | --- | --- | --- | --- | --- | --- | --- | --- | --- | --- | --- | --- |
| 25 to 100% | 25 to 100% | < 25% | 25 to 100% | COc1ccc(Cl)cc1C1(F)CCN(C2CCC3CCC2C3)CC1 (stereo not shown) [Compound 83] | + (activity was measured to be greater than 5.0 μM) | + (activity was measured to be greater than 5.0 μM) | + (activity was measured to be greater than 5.0 μM) | ++ (activity was measured to be from 1.0 μM to 5.0 μM) |  |  |  |  |
| < 25% | < 25% | < 25% | < 25% | CCNC(=O)c1ccc(-c2ccc(OC)c(C3CCN([C@H]4C[C@H]5CC[C@H]4C5)CC3)c2)cc1 [Compound 84] | + (activity was measured to be greater than 5.0 μM) | + (activity was measured to be greater than 5.0 μM) | + (activity was measured to be greater than 5.0 μM) | + (activity was measured to be greater than 5.0 μM) |  |  |  |  |
| 25 to 100% | < 25% | < 25% | 25 to 100% | COc1ccccc1C1CCN([C@@H]2C[C@H]3CC[C@H]2C3)CC1 [Compound 85] | + (activity was measured to be greater than 5.0 μM) | + (activity was measured to be greater than 5.0 μM) | + (activity was measured to be greater than 5.0 μM) | +++ (activity was measured to be less than 1.0 μM) |  |  |  |  |
| 25 to 100% | < 25% | < 25% | 25 to 100% | Cc1ccccc1C1CCN(C2CC3CCC(C3)C2)CC1 (stereo not shown) [Compound 86] | ++ (activity was measured to be from 1.0 μM to 5.0 μM) | + (activity was measured to be greater than 5.0 μM) | + (activity was measured to be greater than 5.0 μM) | +++ (activity was measured to be less than 1.0 μM) |  |  |  |  |
| < 25% | < 25% | < 25% | < 25% | COCCNC(=O)c1ccc(-c2ccc(OC)c(C3CCN([C@H]4C[C@H]5CC[C@H]4C5)CC3)c2)cc1 [Compound 87] | + (activity was measured to be greater than 5.0 μM) | + (activity was measured to be greater than 5.0 μM) | + (activity was measured to be greater than 5.0 μM) | + (activity was measured to be greater than 5.0 μM) |  |  |  |  |
| < 25% | < 25% | < 25% | 25 to 100% | Clc1ccccc1-c1ccccc1C1CCN([C@H]2C[C@H]3CC[C@H]2C3)CC1 [Compound 88] | + (activity was measured to be greater than 5.0 μM) | + (activity was measured to be greater than 5.0 μM) | + (activity was measured to be greater than 5.0 μM) | ++ (activity was measured to be from 1.0 μM to 5.0 μM) |  |  |  |  |
| 25 to 100% | < 25% | < 25% | 25 to 100% | COc1ccccc1C1CCN(C2CCOCC2)CC1 [Compound 90] | + (activity was measured to be greater than 5.0 μM) | + (activity was measured to be greater than 5.0 μM) | + (activity was measured to be greater than 5.0 μM) | +++ (activity was measured to be less than 1.0 μM) |  |  |  |  |
| < 25% | < 25% | < 25% | < 25% | COc1ccc(-c2ccccc2C#N)cc1C1CCN([C@@H]2C[C@H]3CC[C@H]2C3)CC1 [Compound 92] | + (activity was measured to be greater than 5.0 μM) | + (activity was measured to be greater than 5.0 μM) | + (activity was measured to be greater than 5.0 μM) | + (activity was measured to be greater than 5.0 μM) |  |  |  |  |
